Test results reported in publication PMC11926880, “Procognitive Potential of Neuroprotective Triazine 5-HT6 Receptor Antagonists Tested on Chronic Activity In Vivo in Rats: Computer-Aided Insight into the Role of Chalcogen-Differences on the Pharmacological Profile” (ACS Chemical Neuroscience, 2025).
Values joined by “and” are separate entries in the source; they are usually repeats but may differ in a detail not shown here. Identical values can stand only once. Like-named read-outs stand apart in the source and are kept apart here.

What was measured:
5-HT2AR = conditions: read-out: radioligand binding assay Ki; cloned receptors; cited from earlier work
[1] = tissue distribution pharmacokinetics after single i.p. administration; format: in vivo, rat; set-up: Cmax: unit: ng/g
Method: Standard laboratory food (LSM-B) and filtered water as well as environment enrichment were freely available. Animals were randomly divided into treatment groups using a computer-based random order generator. All of the experiments were performed by two observers unaware of the treatment applied between 9:00 and 14:00 on separate groups of animals. Rats were injected with the investigated compounds once (in pharmacokinetic studies) and for 21 days (in behavioral studies), and afterward, behavioral tests were conducted and tissue collection was done, as required. For pharmacokinetic studies, animals were fasted prior to dosing by withholding food but not water overnight. After dosing, the food was withheld for an additional 8 h. All animals were used only once. Animals were handled every day and weighed every other day in the chronic part of the experiment. Procedures involving animals and their care were conducted in accordance with current European Community and Polish legislations on animal experimentation. Additionally, all efforts were made to minimize animals' suffering and to use only the number of animals necessary to produce reliable scientific data. The experimental protocols and procedures described were approved by the I Local Ethics Commission in Cracow (nos 309/2019 and 765/2023) and complied with the European Communities Council Directive of 24 November 24, 1986 (86/609/EEC) and were in accordance with the 1996 NIH Guide for the Care and Use of Laboratory Animals. The research program complies with the commonly accepted '3Rs' (replacement and reduction of animals, refinement of experimental conditions, and procedures to minimize the harm to animals). […] Moreover, five tissues (i.e., brain, heart, lungs, kidneys, and liver) were harvested and rinsed with cold saline. Blood was allowed to clot at room temperature for 15-20 min and then centrifuged (3000 rpm for 10 min). The obtained serum and tissues were stored at -80 °C until analysis. […] HPLC analysis with UV detection at 221 nm was performed at a 1 mL/min flow rate, and the column temperature was 38 °C. Before analysis, tissue samples were thawed, weighed (200-250 mg), and placed in 5 mL plastic tubes with four volumes (w/v) of PBS (pH 7.4) and homogenized individually using a […]-1 homogenizer (ART Prozess & Labortechnik GmbH & Co., Germany). […] The samples were alkalized with 50 μL of 4 M sodium hydroxide solution, vortex-mixed, and extracted with 1 mL of ethyl acetate/hexane (30/70, v/v) mixture on a shaker (VXR Vibrax, IKA, Germany) for 20 min. […] Then, the samples were shaken and centrifuged again. Finally, 60-90 μL of each acidic layer was injected into the HPLC system. […] The interday and intraday precision and accuracy of quality control samples evaluated in the serum and tissue homogenates were within 15%. […] The area under the serum concentration-time curve from time zero to time t (AUC0-t), where t is the time of the last measurable sample, was calculated according to the linear trapezoidal rule. The AUC from time zero to infinity (AUC0-∞) was estimated as AUC0-t + Ct/λz, where Ct was the serum concentration of the last measurable sample. The clearance (CL/F) was calculated as D/AUC0-∞, and the volume of distribution based on the terminal phase (Vz/F) was estimated as D/(λz·AUC0-∞), where F is the bioavailability of intraperitoneal administration. The MRT is calculated to be […], where AMUC0-∞ is the area under the first moment curve from the time of dosing to infinity. The peak serum concentration (Cmax) and the time to reach Cmax (Tmax) were read directly from the observations. […] Data were presented as mean ± SD.

ABCB1 = tested on: ABCB1; set-up: method as in PMID 35228010; conditions: previous evidence; cited from earlier work

## CN1CCN(c2nc(N)nc(C(C)(C)Sc3ccc4ccccc4c3)n2)CC1 [WA-22, 4-(4-methylpiperazin-1-yl)-6-(2-(naphthalen-2-ylthio)propan-2-yl)-1,3,5-triazin-2-amine]
5-HT2AR
  Ki: 0.039 µM
[1]; 1 mg/kg i.p.
  time after administration at which still detected in all analyzed rat organs: 240 min
[1]; brain, 0.3 mg/kg i.p.
  AUC0–t: 1575.82 ± 182.54 ng·min/g
  t0.5λz: 48.35 ± 4.46 min
[1]; brain, 0.3 mg/kg i.p., 0.3 mg/kg
  Tmax: 11.67 ± 5.77 min
[1]; brain, 1.0 mg/kg i.p., 1 mg/kg
  Cmax: 114.79 ± 39.16 ng/g
  Tmax: 8.33 ± 5.77 min
  t0.5λz: 110.31 min and 110.31 ± 24.35 min
[1]; heart, 0.3 mg/kg i.p.
  AUC0–t: 1670.68 ± 385.10 ng·min/g
  t0.5λz: 84.99 ± 19.47 min
[1]; heart, 1.0 mg/kg i.p.
  AUC0–t: 6013.14 ± 2336.18 ng·min/g
  t0.5λz: 122.04 ± 18.30 min
[1]; i.p. administration
  fraction cleared in rat tissues and serum at 120 min: 80–95%
[1]; kidneys, 0.3 mg/kg i.p.
  AUC0–t: 3276.54 ± 1455.54 ng·min/g
  t0.5λz: 67.32 ± 12.95 min
[1]; kidneys, 1.0 mg/kg i.p.
  AUC0–t: 12540.07 ± 4826.76 ng·min/g
[1]; kidneys, 1.0 mg/kg i.p., 1 mg/kg
  t0.5λz: 122 min and 121.93 ± 44.52 min
[1]; liver, 0.3 mg/kg i.p.
  AUC0–t: 3993.81 ± 1308.63 ng·min/g
  t0.5λz: 48.07 ± 6.68 min
[1]; liver, 1.0 mg/kg i.p.
  AUC0–t: 14056.00 ± 8075.06 ng·min/g
[1]; liver, 1.0 mg/kg i.p., 1 mg/kg
  t0.5λz: 109 min and 108.96 ± 17.84 min
[1]; lungs, 0.3 mg/kg i.p.
  AUC0–t: 9320.95 ± 1906.43 ng·min/g
  t0.5λz: 105.43 ± 5.42 min
[1]; lungs, 1.0 mg/kg i.p.
  AUC0–t: 33528.62 ± 5691.73 ng·min/g
  t0.5λz: 96.48 ± 13.43 min
[1]; male, Wistar, rat, brain (relative to serum), ip, i.p. administration, read-out: brain-to-serum AUC ratio
  Kp: ~2.17
[1]; male, Wistar, rat, brain, ip, 0.3 mg/kg, brain, 0.3 mg/kg i.p., read-out: Cmax
  Cmax: 30.7 ± 3.28 ng/g
[1]; male, Wistar, rat, brain, ip, 0.3 mg/kg, brain, 0.3 mg/kg i.p., read-out: Tmax (converted)
  Tmax: 12 min
[1]; male, Wistar, rat, brain, ip, 1 mg/kg, brain, 1.0 mg/kg i.p., read-out: Cmax
  Cmax: 115 ± 39.2 ng/g
[1]; male, Wistar, rat, brain, ip, 1 mg/kg, brain, 1.0 mg/kg i.p., read-out: Tmax (converted)
  Tmax: 8 min
[1]; male, Wistar, rat, brain/serum, ip, 0.3 mg/kg, brain, 0.3 mg/kg i.p., read-out: AUC ratio (tissue-to-serum AUC0–t)
  Kp: 1.89 ± 0.34
[1]; male, Wistar, rat, brain/serum, ip, 1 mg/kg, brain, 1.0 mg/kg i.p., read-out: AUC ratio (tissue-to-serum AUC0–t)
  Kp: 2.46 ± 1.32
[1]; male, Wistar, rat, brain/serum, ip, 1 mg/kg, brain-to-serum, 1 mg/kg i.p., read-out: AUC0–∞ (ng·h/g)/AUC0–∞ (ng·h/mL)
  Kp: 2.14 ± 1.18
[1]; male, Wistar, rat, brain/serum, ip, 1 mg/kg, brain-to-serum, 1 mg/kg i.p., read-out: Cmax (ng/g)/Cmax (ng/mL)
  Kp: 1.99 ± 1.61
[1]; male, Wistar, rat, heart, ip, 0.3 mg/kg, heart, 0.3 mg/kg i.p., read-out: Cmax
  Cmax: 37.5 ± 6.65 ng/g
[1]; male, Wistar, rat, heart, ip, 0.3 mg/kg, heart, 0.3 mg/kg i.p., read-out: Tmax (converted)
  Tmax: 5 min
[1]; male, Wistar, rat, heart, ip, 1 mg/kg, heart, 1.0 mg/kg i.p., read-out: Cmax
  Cmax: 172 ± 74.7 ng/g
[1]; male, Wistar, rat, heart, ip, 1 mg/kg, heart, 1.0 mg/kg i.p., read-out: Tmax (converted)
  Tmax: 5 min
[1]; male, Wistar, rat, heart/serum, ip, 0.3 mg/kg, heart, 0.3 mg/kg i.p., read-out: AUC ratio (tissue-to-serum AUC0–t)
  Kp: 2 ± 0.52
[1]; male, Wistar, rat, heart/serum, ip, 1 mg/kg, heart, 1.0 mg/kg i.p., read-out: AUC ratio (tissue-to-serum AUC0–t)
  Kp: 2.63 ± 1.69
[1]; male, Wistar, rat, heart/serum, ip, 1 mg/kg, heart-to-serum, 1 mg/kg i.p., read-out: AUC0–∞ (ng·h/g)/AUC0–∞ (ng·h/mL)
  Kp: 2.09 ± 2.71
[1]; male, Wistar, rat, heart/serum, ip, 1 mg/kg, heart-to-serum, 1 mg/kg i.p., read-out: Cmax (ng/g)/Cmax (ng/mL)
  Kp: 2.61 ± 1.09
[1]; male, Wistar, rat, ip, brain, 0.3 mg/kg i.p.
  MRT: 64.4 min
[1]; male, Wistar, rat, ip, brain, 1.0 mg/kg i.p.
  MRT: 90.6 min
[1]; male, Wistar, rat, ip, heart, 0.3 mg/kg i.p.
  MRT: 104 min
[1]; male, Wistar, rat, ip, heart, 1.0 mg/kg i.p.
  MRT: 109 min
[1]; male, Wistar, rat, ip, kidneys, 0.3 mg/kg i.p.
  MRT: 85.3 min
[1]; male, Wistar, rat, ip, kidneys, 1.0 mg/kg i.p.
  MRT: 107 min
[1]; male, Wistar, rat, ip, liver, 0.3 mg/kg i.p.
  MRT: 40.6 min
[1]; male, Wistar, rat, ip, liver, 1.0 mg/kg i.p.
  MRT: 51.3 min
[1]; male, Wistar, rat, ip, lungs, 0.3 mg/kg i.p.
  MRT: 130 min
[1]; male, Wistar, rat, ip, lungs, 1.0 mg/kg i.p.
  MRT: 72.6 min
[1]; male, Wistar, rat, kidneys, ip, 0.3 mg/kg, kidneys, 0.3 mg/kg i.p., read-out: Cmax
  Cmax: 72.3 ± 27.1 ng/g
[1]; male, Wistar, rat, kidneys, ip, 0.3 mg/kg, kidneys, 0.3 mg/kg i.p., read-out: Tmax (converted)
  Tmax: 5 min
[1]; male, Wistar, rat, kidneys, ip, 1 mg/kg, kidneys, 1.0 mg/kg i.p., read-out: Cmax
  Cmax: 247 ± 119 ng/g
[1]; male, Wistar, rat, kidneys, ip, 1 mg/kg, kidneys, 1.0 mg/kg i.p., read-out: Tmax (converted)
  Tmax: 5 min
[1]; male, Wistar, rat, kidneys/serum, ip, 0.3 mg/kg, kidneys, 0.3 mg/kg i.p., read-out: AUC ratio (tissue-to-serum AUC0–t)
  Kp: 3.93 ± 1.88
[1]; male, Wistar, rat, kidneys/serum, ip, 1 mg/kg, kidneys, 1.0 mg/kg i.p., read-out: AUC ratio (tissue-to-serum AUC0–t)
  Kp: 5.47 ± 3.33
[1]; male, Wistar, rat, kidneys/serum, ip, 1 mg/kg, kidneys-to-serum, 1 mg/kg i.p., read-out: AUC0–∞ (ng·h/g)/AUC0–∞ (ng·h/mL)
  Kp: 4.96 ± 3.2
[1]; male, Wistar, rat, kidneys/serum, ip, 1 mg/kg, kidneys-to-serum, 1 mg/kg i.p., read-out: Cmax (ng/g)/Cmax (ng/mL)
  Kp: 3.41 ± 0.59
[1]; male, Wistar, rat, liver (relative to serum), ip, 1 mg/kg, liver, 1.0 mg/kg i.p., read-out: AUC ratio (tissue-to-serum AUC0–t)
  Kp: 6.32 ± 4.96
[1]; male, Wistar, rat, liver, ip, 0.3 mg/kg, liver, 0.3 mg/kg i.p., read-out: Cmax
  Cmax: 149 ± 34.8 ng/g
[1]; male, Wistar, rat, liver, ip, 0.3 mg/kg, liver, 0.3 mg/kg i.p., read-out: Tmax (converted)
  Tmax: 5 min
[1]; male, Wistar, rat, liver, ip, 1 mg/kg, liver, 1.0 mg/kg i.p., read-out: Cmax
  Cmax: 404 ± 101 ng/g
[1]; male, Wistar, rat, liver, ip, 1 mg/kg, liver, 1.0 mg/kg i.p., read-out: Tmax (converted)
  Tmax: 5 min
[1]; male, Wistar, rat, liver/serum, ip, 0.3 mg/kg, liver, 0.3 mg/kg i.p., read-out: AUC ratio (tissue-to-serum AUC0–t)
  Kp: 4.75 ± 1.57
[1]; male, Wistar, rat, liver/serum, ip, 1 mg/kg, liver-to-serum, 1 mg/kg i.p., read-out: AUC0–∞ (ng·h/g)/AUC0–∞ (ng·h/mL)
  Kp: 5.11 ± 3.85
[1]; male, Wistar, rat, liver/serum, ip, 1 mg/kg, liver-to-serum, 1 mg/kg i.p., read-out: Cmax (ng/g)/Cmax (ng/mL)
  Kp: 6.3 ± 2.69
[1]; male, Wistar, rat, lungs (relative to serum), ip, 1 mg/kg, lungs, 1.0 mg/kg i.p., read-out: AUC ratio (tissue-to-serum AUC0–t)
  Kp: 14.1 ± 5.62
[1]; male, Wistar, rat, lungs, ip, 0.3 mg/kg, lungs, 0.3 mg/kg i.p., read-out: Cmax
  Cmax: 214 ± 45.7 ng/g
[1]; male, Wistar, rat, lungs, ip, 0.3 mg/kg, lungs, 0.3 mg/kg i.p., read-out: Tmax (converted)
  Tmax: 5 min
[1]; male, Wistar, rat, lungs, ip, 1 mg/kg, lungs, 1.0 mg/kg i.p., read-out: Cmax
  Cmax: 744 ± 88.9 ng/g
[1]; male, Wistar, rat, lungs, ip, 1 mg/kg, lungs, 1.0 mg/kg i.p., read-out: Tmax (converted)
  Tmax: 5 min
[1]; male, Wistar, rat, lungs/serum, ip, 0.3 mg/kg, lungs, 0.3 mg/kg i.p., read-out: AUC ratio (tissue-to-serum AUC0–t)
  Kp: 11.1 ± 2.57
[1]; male, Wistar, rat, lungs/serum, ip, 1 mg/kg, lungs-to-serum, 1 mg/kg i.p., read-out: AUC0–∞ (ng·h/g)/AUC0–∞ (ng·h/mL)
  Kp: 13.9 ± 7.95
[1]; male, Wistar, rat, lungs/serum, ip, 1 mg/kg, lungs-to-serum, 1 mg/kg i.p., read-out: Cmax (ng/g)/Cmax (ng/mL)
  Kp: 15 ± 7.31
ABCB1
  ABCB1 inhibition: potent inhibitor of ABCB1
